Source: the supplement of paper PMC11003180

Assays:
Test in all cases: drug sensitivity score (DSS) from 5-dose viability curve (DSS (area-based score, 0 = no response)); higher = more sensitive (stronger viability inhibition); extreme values may be limits of the assay
[1] = tested on: MDCK wild-type - doxycycline; settings: doxycycline: none; 72 h
Method in brief: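 An oncology library of 528 drugs was pre-spotted at five doses (1-10,000 nM) in 384-well plates, and parental MDCK cells without doxycycline were added at 2000 cells/well. The plates were kept at 37 °C for 72 h. Drug sensitivity scores were obtained by fitting dose-response curves in the Breeze pipeline to CellTiter-Glo viability readings scaled per plate between vehicle and positive controls.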

[2] = tested on: MDCK wild-type + doxycycline; settings: doxycycline: 10 ng/mL; 72 h
Method in brief: (§1)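 Pre-spotted 384-well plates held 528 oncology drugs, each at five doses from 1 to 10,000 nM. Parental and doxycycline-inducible MDCK cells, exposed beforehand to 10 ng/mL doxycycline in the medium, were added at 2000 cells/well and incubated 72 h at 37 °C. Viability came from CellTiter-Glo luminescence normalized per plate to vehicle and positive controls, and the Breeze pipeline fitted dose-response curves to give drug sensitivity scores.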

[3] = tested on: MDCK p60AmotL2-inducible + doxycycline (p60AmotL2 expressing); settings: doxycycline: 10 ng/mL; 72 h
Method in brief: as §1

Row | Compound | drug sensitivity score [1] | drug sensitivity score [2] | drug sensitivity score [3]
1 | C[C@]12C=CC(=O)C=C1CC[C@@H]1[C@@H]2[C@@H](O)C[C@@]2(C)[C@H]1CC[C@]2(O)C(=O)CO [Prednisolone] | 1.2 | 0 | 0
2 | C=CC(=O)N1CCC(Oc2cc3c(Nc4ccc(Cl)c(Cl)c4F)ncnc3cc2OC)CC1 [Poziotinib] | 9.2 | 14.3 | 27.9
3 | CC[C@H](NC(=O)[C@H](C)NC)C(=O)N1C[C@@H](O)C[C@H]1Cc1c(-c2[nH]c3cc(F)ccc3c2C[C@@H]2C[C@H](O)CN2C(=O)[C@H](CC)NC(=O)[C@H](C)NC)[nH]c2cc(F)ccc12 [Birinapant] | 0 | 0 | 0
4 | Cc1ccc(NC(=O)c2ccc(CN3CCN(C)CC3)cc2)cc1Nc1nc(-c2cccnc2)cs1 [Masitinib] | 5.7 | 8.2 | 5.3
5 | NC1(c2ccc(-c3nc4ccn5c(=O)[nH]nc5c4cc3-c3ccccc3)cc2)CCC1 [MK-2206] | 0 | 0 | 0
6 | COc1cc2c(cc1OCCCN1CCCC1)N=C(N)C21CCC1 [A-366] | 0 | 0 | 0
7 | CC(C)[C@H](C(=O)Nc1ccc(C(=O)NO)cc1)c1ccccc1 [AR-42] | 10.4 | 12.4 | 14
8 | C[C@@H]1CN(Cc2ccc(F)cc2)[C@@H](C)CN1C(=O)c1cc2c(C(=O)C(=O)N(C)C)cn(C)c2cc1Cl [Talmapimod] | 0 | 0 | 0
9 | Nc1ncnc2c1c(COc1cccc(Cl)c1)nn2C1CCOCC1 | 0 | 0 | 0.5
10 | COC(=O)c1ccc([C@H]2c3[nH]c4ccccc4c3C[C@H](C(=O)OC)N2C(=O)CCl)cc1 [RSL3] | 0 | 0 | 0
11 | Cc1ncc(-c2ccnc(Nc3ccc(S(C)(=O)=O)cc3)n2)n1C(C)C [AZD-5438] | 9.9 | 13.1 | 9.1
12 | Cc1cc(-c2nc(-c3ccc(OC(F)(F)F)cc3)no2)nn1Cc1ccnc(N2CCN(C3CC3)CC2)c1 [BAY 87-2243] | 0 | 0 | 0
13 | Cc1cc2c(C(=O)NC[C@H](C)c3ccccc3)c(O)c(O)cc2c(O)c1-c1c(C)cc2c(C(=O)NC[C@H](C)c3ccccc3)c(O)c(O)cc2c1O [Sabutoclax] | 13.9 | 19.3 | 23
14 | C[C@@H]1CN(C(=O)c2ccc(NC(=O)c3cc(O[C@H](C)c4c(Cl)ccc(F)c4Cl)c(N)nn3)cc2)C[C@H](C)N1 [Ensartinib] | 0 | 0 | 1.4
15 | COC(=O)c1ccc2c(c1)[nH]c1ncnc(NCCCN3CCCCC3)c12 [UM729] | 0 | 0.9 | 3
16 | CCN(CC)CCCC(C)Nc1ccnc2cc(Cl)ccc12 (centres undefined) [Chloroquine] | 5.1 | 4.5 | 5.2
17 | CC1(C)CCC(c2ccc(Cl)cc2)=C(CN2CCN(c3ccc(C(=O)NS(=O)(=O)c4ccc(N[C@H](CCN5CCOCC5)CSc5ccccc5)c(S(=O)(=O)C(F)(F)F)c4)cc3)CC2)C1 [Navitoclax] | 0.8 | 0.9 | 0
18 | N.N.[Cl][Pt][Cl] [Cisplatin] | 5.7 | 12.2 | 13.5
19 | CCCS(=O)(=O)Nc1ccc(F)c(C(=O)c2c[nH]c3ncc(-c4ccc(Cl)cc4)cc23)c1F [Vemurafenib] | 0 | 0 | 0
20 | CC/C(=C(\c1ccccc1)c1ccc(OCCN(C)C)cc1)c1ccccc1 [Tamoxifen] | 0 | 0 | 1
21 | CC(C)NC[C@@H](C(=O)N1CCN(c2ncnc3c2[C@H](C)C[C@H]3O)CC1)c1ccc(Cl)cc1 [Ipatasertib] | 0 | 0.1 | 2.2
22 | O=C(O)CCCCC(CCSCc1ccccc1)SCc1ccccc1 (centres undefined) [CPI-613] | 0 | 0 | 0

Row | Compound | drug sensitivity score [1] | drug sensitivity score [2] | drug sensitivity score [3]
23 | COc1cc(CCc2cc(NC(=O)c3ccc(N4CC(C)NC(C)C4)cc3)n[nH]2)cc(OC)c1 (centres undefined) [AZD4547] | 0 | 0 | 0
24 | CN(C)Cc1c(C(=O)NCCOc2ccc(C(=O)NO)cc2)oc2ccccc12 [Abexinostat] | 15.6 | 17.5 | 18.8
25 | CNc1ncc2cc(-c3cc(NC(=O)NCCC(C)(C)C)c(F)cc3C)c(C)nc2n1 | 2.8 | 5.2 | 9
26 | CC(C)(O)CNc1nc(Nc2ccnc(C(F)(F)F)c2)nc(-c2cccc(C(F)(F)F)n2)n1 [Enasidenib] | 0 | 0 | 0
27 | C=CC(=O)Nc1cccc(Nc2nc(Nc3ccc(OCCOC)cc3)ncc2F)c1 [Spebrutinib] | 0 | 0 | 0.8
28 | Cc1c2oc3c(C)ccc(C(=O)N[C@@H]4C(=O)N[C@H](C(C)C)C(=O)N5CCC[C@H]5C(=O)N(C)CC(=O)N(C)[C@@H](C(C)C)C(=O)O[C@@H]4C)c3nc-2c(C(=O)N[C@@H]2C(=O)N[C@H](C(C)C)C(=O)N3CCC[C@H]3C(=O)N(C)CC(=O)N(C)[C@@H](C(C)C)C(=O)O[C@@H]2C)c(N)c1=O [Dactinomycin] | 25.2 | 27.6 | 32.9
29 | O=C1CCc2c(Oc3ccc4c(c3)[C@@H]3[C@H](O4)[C@H]3c3nc4cc(C(F)(F)F)ccc4[nH]3)ccnc2N1 [BGB-283] | 1.6 | 5.4 | 6.6
30 | CC(C)C[C@H](NC(=O)CNC(=O)c1cc(Cl)ccc1Cl)B(O)O [Ixazomib] | 9.6 | 9.4 | 9.7
31 | COc1cc2nccc(Oc3ccc(NC(=O)C4(C(=O)Nc5ccc(F)cc5)CC4)cc3)c2cc1OC [Cabozantinib] | 0 | 0 | 0
32 | C#Cc1cccc(Nc2ncnc3cc(OCCOC)c(OCCOC)cc23)c1 [Erlotinib] | 3.4 | 4.5 | 15.4
33 | Nc1nc(N)c2nc(-c3cccc(O)c3)c(-c3cccc(O)c3)nc2n1 [TG100-115] | 0 | 0 | 0
34 | CN(C)C/C=C/C(=O)Nc1cc2c(Nc3ccc(F)c(Cl)c3)ncnc2cc1O[C@H]1CCOC1 [Afatinib] | 4.2 | 3.5 | 18.3
35 | CCOc1cc2ncc(C#N)c(Nc3ccc(OCc4ccccn4)c(Cl)c3)c2cc1NC(=O)/C=C/CN(C)C [Neratinib] | 5.1 | 7.5 | 16.8
36 | COc1cccc2c1C(=O)c1c(O)c3c(c(O)c1C2=O)C[C@@](O)(C(=O)CO)C[C@@H]3O[C@H]1C[C@H](N)[C@@H](O)[C@H](C)O1 [Epirubicin] | 5.9 | 10 | 11.6
37 | O=C(NC1CCNCC1)c1n[nH]cc1NC(=O)c1c(Cl)cccc1Cl [AT7519] | 8.2 | 8.9 | 9.1
38 | Cc1cc(C(C)Nc2ccccc2)c2nc(N3CCOCC3)cc(=O)n2c1 (centres undefined) [TGX-221] | 0 | 0.4 | 0.3
39 | COc1ccccc1S(=O)(=O)Nc1ccc2c(c1)CN(C)C(=O)N2 [PFI-1] | 0.3 | 2.4 | 5.3
40 | O=C(c1cc(Cc2n[nH]c(=O)c3ccccc23)ccc1F)N1CCN(C(=O)C2CC2)CC1 [Olaparib] | 0 | 0 | 0.2
41 | O=c1ncn2nc(Sc3ccc(F)cc3F)ccc2c1-c1c(Cl)cccc1Cl [Neflamapimod] | 0 | 0 | 0
42 | CNC(=O)c1ccccc1Nc1nc(Nc2ccc3c(c2OC)CCC[C@H](N2CCN(CCO)CC2)C3)ncc1Cl | 6.8 | 6.2 | 8.8
43 | CO[C@H]1C[C@@H]2CC[C@@H](C)[C@@](O)(O2)C(=O)C(=O)N2CCCC[C@H]2C(=O)O[C@H]([C@H](C)C[C@@H]2CC[C@@H](OP(C)(C)=O)[C@H](OC)C2)CC(=O)[C@H](C)/C=C(\C)[C@@H](O)[C@@H](OC)C(=O)[C@H](C)C[C@H](C)/C=C/C=C/C=C/1C [Ridaforolimus] | 0 | 0.6 | 9.8
